23 compounds from US10017506B2, “ATX modulating agents” (BIOGEN MA INC., priority 2012, dated 2018) can be followed below.

Some results are limits rather than exact numbers.

One assay deals with T1, Human ATX protein (Homo sapiens, UniProt Q13822).
T1 construct: made in house
In words: ATX biochemical FRET assay with FS-3 substrate. The following applies: FRET substrate FS-3 2 μM, ATX 1.0 μg/mL, 30 minutes pre-incubation, 2 hours at room temperature; read-out: IC50. The text has this: ATX (Autotaxin) is a 125 KDa glycoprotein with lysophospholipase D (LPLD) activity that generates the bioactive lipid lysophosphatidic acid (LPA) from lysophosphatidylcholine (LPC). The ATX biochemical assay utilizes a FRET (fluorescence resonance energy transfer) technology platform. The fluorescence signal of FRET substrate FS-3 is quenched due to intra-molecular FRET of a fluorophore to a non-fluorescing quencher (Ferguson, C. G., et al., Org Lett. 2006 May 11; 8(10): 2023-2026, which is incorporated by reference in its entirety). ATX catalyzes the hydrolysis of the substrate which separates the dabsyl quencher from the fluorescein reporter, which becomes fluorescent. The reaction is monitored by a SpectraMax M5 (Molecular Devices, Sunnyvale, Calif.) with at excitation wavelength 485 nm and emission wavelength […].
Fatty acid free-BSA (Sigma A8806): 10 mg/mL in H2O, stored at 4° C.
2×ATX assay buffer: 100 mM Tris, 280 mM NaCl, 10 mM KCl, 2 mM CaCl2, 2 mM MgCl2, pH 7.4.
Human ATX protein: expressed and purified in house. Stored at −80° C.
Substrate FS-3 (Echelon, L-2000): 100 μg in 77.74 μL H2O (1 mM stock), stored at −20° C.
384-well flat bottom plates—Corning #3575.
Compound dilution—All compounds were provided at 10 mM in 100% DMSO. In the first well, 2 μL of 10 mM compound was added to 78 μL of DMSO (1:40 dilution). In subsequent wells 3-fold dilution (total 10 dilutions) were performed.
1×ATX assay buffer was made up with a final concentration of 1 mg/mL fatty acid free-BSA using 2×ATX assay buffer, 10 mg/ml fatty acid free-BSA and ddH2O.
ATX protein was diluted with 1×ATX assay buffer to a concentration of 1.32 μg/mL (1.32×). 38 μL was added per well to the assay plate. The final concentration of ATX in the reaction as 1.0 μg/mL.
2 μL per well of compounds was transferred to provide the desired concentration. The plate was centrifuged, then incubated at room temperature for 30 minutes on the shaker.
Then, 10 μL was added per well to the assay plate. […] The plate was centrifuged. The plate was kept shaking at room temperature for 2 hours. Because FS-3 substrate is light sensitive, plates were kept covered and protected from light.
Fluorescence was measured using SpectraMax M5 (excitation at 485 nm/emission at 538 nm, top read).
Regarding `CC(N[C@H]1C[C@@H](C(=O)O)C1(C)C)c1ccc2ccc(O[C@H]3CC[C@@H](C)CC3)c(Cl)c2c1` (relative stereo) [Example 93, Cis-3-((1-(8-chloro-7-((cis-4-methylcyclohexyl)oxy)naphthalen-2-yl)ethyl)amino)-2,2-dimethylcyclobutanecarboxylic acid], the IC50 was at most 250 nM.
Take `CC1(C)[C@@H](NCc2ccc3ccc(O[C@H]4CC[C@@H](C)CC4)c(C#N)c3c2)C[C@H]1C(=O)O` (relative stereo) [Example 99, Cis-3-(((8-cyano-7-((cis-4-methylcyclohexyl)oxy)naphthalen-2-yl)methyl)amino)-2,2-dimethylcyclobutanecarboxylic acid]: the IC50 is at most 250 nM.
On the same count and under the same terms, to `O=C(O)C[C@H]1CCCN(Cc2ccc3ccc(O[C@H]4CC[C@@H](C(F)(F)F)CC4)c(C(F)(F)F)c3c2)C1` [Example 7, 2-((R)-1-((8-(trifluoromethyl)-7-((cis-4-(trifluoromethyl)cyclohexyl)oxy)naphthalen-2-yl)methyl)piperidin-3-yl)acetic acid] belongs at most 100 nM.
The same measure, in the same setting: for `CC1(C)C(NCc2ccc3ccc(O[C@H]4CC[C@@H](C(F)(F)F)CC4)c(C(F)(F)F)c3c2)CC1C(=O)O` (stereo partly drawn) [Example 8, 2,2-dimethyl-3-(((8-(trifluoromethyl)-7-((cis-4-(trifluoromethyl)cyclohexyl)oxy)-naphthalen-2-yl)methyl)amino)cyclobutanecarboxylic acid] the value was at most 250 nM.
For `CC(c1ccc2ccc(O[C@H]3CC[C@@H](C(F)(F)F)CC3)c(C(F)(F)F)c2c1)N1CCC[C@H](CC(=O)O)C1` (stereo partly drawn) [Example 21, ((R)-1-{1-[8-trifluoromethyl-7-(4-trifluoromethyl-cyclohexyloxy)-naphthalen-2-yl]-ethyl}-piperidin-3-yl)-acetic acid], the IC50 was at most 250 nM.

Staying with this assay, now noted: IC50, FRET substrate FS-3 2 μM, ATX 1.0 μg/mL, 30 minutes pre-incubation, 2 hours at room temperature.
`CCC(c1ccc2ccc(O[C@H]3CC[C@@H](C)CC3)c(C(F)(F)F)c2c1)N1C2CCC1CC(C(=O)O)C2` (relative stereo) [Example 18, 8-(1-(7-((cis-4-methylcyclohexyl)oxy)-8-(trifluoromethyl)naphthalen-2-yl)propyl)-8-azabicyclo[3.2.1]octane-3-carboxylic acid]: the IC50 is at most 250 nM.
On the same count and under the same terms, for `O=C(O)C1CC2CCC(C1)N2C(=O)c1ccc2ccc(O[C@H]3CC[C@@H](C(F)(F)F)CC3)c(C(F)(F)F)c2c1` (relative stereo) [Example 23, 8-(8-(trifluoromethyl)-7-((cis-4-(trifluoromethyl)cyclohexyl)oxy)-2-naphthoyl)-8-azabicyclo[3.2.1]octane-3-carboxylic acid] the value was at most 250 nM; for `C[C@H]1CC[C@@H](Oc2ccc3ccc(C(=O)N4C5CCC4CC(C(=O)O)C5)cc3c2C(F)(F)F)CC1` (relative stereo) [Example 24, 8-[7-(cis-4-methyl-cyclohexyloxy)-8-trifluoromethyl-naphthalene-2-carbonyl]-8-azabicyclo[3.2.1]octane-3-carboxylic acid], at most 250 nM.
In turn, `CC[C@H]1CC[C@@H](Oc2ccc3ccc(CN4C5CCCC4CC(C(=O)O)C5)cc3c2Cl)CC1` (relative stereo) [Example 49, 9-((8-chloro-7-((cis-4-ethylcyclohexyl)oxy)naphthalen-2-yl)methyl)-9-azabicyclo[3.3.1]nonane-3-carboxylic acid] gave a concentration for half-maximal inhibition (IC50) of at most 100 nM.
In the case of `C[C@H](c1ccc2ccc(O[C@H]3CC[C@@H](C)CC3)c(C(F)(F)F)c2c1)N1C2CCCC1CC(C(=O)O)C2` (single isomer, unassigned) [Example 5b], the half-maximal inhibitory concentration (IC50) is at most 100 nM.
As for `C[C@H]1CC[C@@H](Oc2ccc3ccc(CN4C5CCCC4CC(C(=O)O)C5)cc3c2C(F)(F)F)CC1` (stereo partly drawn) [Example 2, 9-[7-(cis-4-methyl-cyclohexyloxy)-8-trifluoromethyl-naphthalen-2-ylmethyl]-9-aza-bicyclo[3.3.1]nonane-3-carboxylic acid], the IC50 is at most 100 nM.
With `C[C@H]1CC[C@@H](Oc2ccc3ccc(CN4C5CCC4CC(C(=O)O)C5)cc3c2C(F)(F)F)CC1` (stereo partly drawn) [Example 3, 8-[7-(cis-4-methyl-cyclohexyloxy)-8-trifluoromethyl-naphthalen-2-ylmethyl]-8-aza-bicyclo[3.2.1]octane-3-carboxylic acid], the IC50 was at most 100 nM.
The same measure, in the same setting: for `CC(c1ccc2ccc(O[C@H]3CC[C@@H](C)CC3)c(C(F)(F)F)c2c1)N1C2CCCC1CC(C(=O)O)C2` (stereo partly drawn) [Example 5, 9-{1-[7-(cis-4-methyl-cyclohexyloxy)-8-trifluoromethyl-naphthalen-2-yl]-ethyl}-9-aza-bicyclo[3.3.1]nonane-3-carboxylic acid] the value was at most 100 nM; for `CC(c1ccc2ccc(O[C@H]3CC[C@@H](C(F)(F)F)CC3)c(C(F)(F)F)c2c1)N1C2CCCC1CC(C(=O)O)C2` (stereo partly drawn) [Example 10, 9-{1-[7-(cis-4-trifluoromethyl-cyclohexyloxy)-8-trifluoromethyl-naphthalen-2-yl]-ethyl}-9-aza-bicyclo[3.3.1]nonane-3-carboxylic acid], at most 100 nM; for `CC(c1ccc2ccc(O[C@H]3CC[C@@H](C(F)(F)F)CC3)c(C(F)(F)F)c2c1)N1C2CCC1CC(C(=O)O)C2` (stereo partly drawn) [Example 12, 8-{1-[7-(cis-4-trifluoromethyl-cyclohexyloxy)-8-trifluoromethyl-naphthalen-2-yl]-ethyl}-8-aza-bicyclo[3.2.1]octane-3-carboxylic acid], at most 100 nM.
On the same count and under the same terms, to `C[C@@H](c1ccc2ccc(O[C@H]3CC[C@@H](C(F)(F)F)CC3)c(C(F)(F)F)c2c1)N1C2CCC1CC(C(=O)O)C2` (stereo partly drawn) [Example 12a, 8-{(S)-1-[7-(cis-4-trifluoromethyl-cyclohexyloxy)-8-trifluoromethyl-naphthalen-2-yl]-ethyl}-8-aza-bicyclo[3.2.1]octane-3-carboxylic acid] belongs at most 500 nM.
The same measure, in the same setting: for `C[C@H](c1ccc2ccc(O[C@H]3CC[C@@H](C(F)(F)F)CC3)c(C(F)(F)F)c2c1)N1C2CCC1CC(C(=O)O)C2` (stereo partly drawn) [Example 12b, 8-{(R)-1-[7-(cis-4-trifluoromethyl-cyclohexyloxy)-8-trifluoromethyl-naphthalen-2-yl]-ethyl}-8-aza-bicyclo[3.2.1]octane-3-carboxylic acid] the value was at most 100 nM; for `C[C@H]1CC[C@@H](Oc2ccc3ccc(C(=O)N4C5CCCC4CC(C(=O)O)C5)cc3c2C(F)(F)F)CC1` (some centres unmarked) [Example 13, 9-[7-(4-methyl-cyclohexyloxy)-8-trifluoromethyl-naphthalene-2-carbonyl]-9-aza-bicyclo [3.3.1]nonane-3-carboxylic acid], at most 500 nM.
As to `O=C(O)C1CC2CCCC(C1)N2C(=O)c1ccc2ccc(O[C@H]3CC[C@@H](C(F)(F)F)CC3)c(C(F)(F)F)c2c1` (some centres unmarked) [Example 14, 9-[8-trifluoromethyl-7-(4-trifluoromethyl-cyclohexyloxy)-naphthalene-2-carbonyl]-9-aza-bicyclo[3.3.1]nonane-3-carboxylic acid], the IC50 was at most 100 nM.
Turning to `C[C@H]1CC[C@@H](Oc2ccc3ccc(CN4C5CCCC4CC(C(=O)O)C5)cc3c2Cl)CC1` (some centres unmarked) [Example 15, 9-[8-Chloro-7-(4-methyl-cyclohexyloxy)-naphthalen-2-ylmethyl]-9-aza-bicyclo[3.3.1]nonane-3-carboxylic acid], the IC50 was at most 100 nM.
Regarding `O=C(O)C1CC2CCC(C1)N2Cc1ccc2ccc(O[C@H]3CC[C@@H](C(F)(F)F)CC3)c(Cl)c2c1` (stereo partly drawn) [Example 26, 8-((8-chloro-7-((cis-4-(trifluoromethyl)cyclohexyl)oxy)naphthalen-2-yl)methyl)-8-azabicyclo[3.2.1]octane-3-carboxylic acid], the half-maximal inhibitory concentration (IC50) was at most 250 nM.
Same read-out and setting: for `O=C(O)C1CC2CCCC(C1)N2Cc1ccc2ccc(O[C@H]3CC[C@@H](C(F)(F)F)CC3)c(Cl)c2c1` (stereo partly drawn) [Example 27, 9-((8-chloro-7-((cis-4-(trifluoromethyl)cyclohexyl)oxy)naphthalen-2-yl)methyl)-9-azabicyclo[3.3.1]nonane-3-carboxylic acid] the value was at most 100 nM; for `CC(c1ccc2ccc(O[C@H]3CC[C@@H](C(F)(F)F)CC3)c(Cl)c2c1)N1C2CCC1CC(C(=O)O)C2` (stereo partly drawn) [Example 29, 8-(1-(8-chloro-7-((cis-4-(trifluoromethyl)cyclohexyl)oxy)naphthalen-2-yl)ethyl)-8-azabicyclo[3.2.1]octane-3-carboxylic acid], at most 250 nM.
